How the values were obtained:
GSAAT = molecular target: T1, GSAAT (Hordeum vulgare, UniProt P18492); conditions: background, Beale (1990); cited from earlier work
T1 sequence (P18492 35-469): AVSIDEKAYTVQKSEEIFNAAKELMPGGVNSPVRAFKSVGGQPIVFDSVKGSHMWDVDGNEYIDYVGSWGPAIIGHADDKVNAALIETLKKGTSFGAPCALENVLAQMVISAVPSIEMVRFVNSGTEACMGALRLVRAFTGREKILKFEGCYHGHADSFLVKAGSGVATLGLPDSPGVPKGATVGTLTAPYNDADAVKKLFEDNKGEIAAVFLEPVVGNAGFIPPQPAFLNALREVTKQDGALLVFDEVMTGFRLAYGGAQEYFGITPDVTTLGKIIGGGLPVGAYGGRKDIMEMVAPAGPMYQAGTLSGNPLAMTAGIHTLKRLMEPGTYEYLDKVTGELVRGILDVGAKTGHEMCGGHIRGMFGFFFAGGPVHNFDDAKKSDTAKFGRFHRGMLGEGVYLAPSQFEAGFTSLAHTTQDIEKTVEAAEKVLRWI

[1] = system: transgenic maize lines with the ALAS gene; experiment: Tolerance of transgenic maize lines with the ALAS (hemA) gene to the GSAAT inhibitor; type: in vivo; conditions: 100 μM; compared with untreated controls on medium without inhibitor
Protocol: To produce transgenic maize plants which contain an expression cassette for Rhodobacter sphaeroides hemA gene, a transformation was carried out as described in EP-A 0 469 273, with the difference that pALAS3f was employed as the DNA to be transferred. 41 independent maize transformants were obtained. Amongst these lines termed M23T1, M25T1 to M25T13 and M27T1 to M27T27, plants were regenerated as described. The presence of the complete hemA gene was detected in all transgenic plants by means of PCR using the oligodeoxynucleotides ALAS1 and ALAS2 (see Example 1) as PCR primers.
(§1) The tolerance of transgenic lines to 3-amino-2,3-dihydrobenzoic acid is determined in comparison with the nontransgenic original line. To this end, five regenerate plants per line whose size and root system visually corresponds to the above-described seedlings after six days germination are transferred to media without 3-amino-2,3-dihydrobenzoic acid (one plant) and with 100 μM 3-amino-2,3-dihydrobenzoic acid (four plants) and grown on.

untransformed maize line = experiment: Tolerance threshold of the untransformed maize line to the GSAAT inhibitor; type: in vivo; conditions: for wet weight of nontransgenic plants: six days after medium change, means of 10 plants without root and seed kernel remains
Protocol: First, the tolerance threshold of the untransformed maize line over the GSAAT inhibitor 3-amino-2,3-dihydrobenzoic acid was determined. To this end, the maize seeds were surface-sterilized by washing them under sterile conditions first for 1 minute in 70% ethanol, then for 20 minutes in 5% sodium hypochlorite, 0.1% Tween 20 and subsequently six times briefly in sterile water. The seeds were then placed under sterile conditions on Murashige & Skoog medium (micro- and macronutrients, Sigma GmbH #M5524) containing 90 g/l sucrose and 8 g/l agar and grown for six days at room temperature under daylight fluorescent tubes in a 12-hour-light/12-hour-dark photoperiod until the second leaf emerged. At this stage, the plantlets were transferred to fresh medium with various concentrations of 3-amino-2,3-dihydrobenzoic acid.
After the plants had been grown for a further 10 days, the effect of the inhibitor was recorded. […] Six days after the medium was changed, the following wet weights were found for the nontransgenic plants (in each case means of 10 individual plants without root and remains of the seed kernel):
as §1

[2] = molecular target: T2, recombinant Hordeum vulgare GSAAT (Hordeum vulgare, UniProt P18492); experiment: GSAAT activity test (photometric detection of derivatized 5-aminolevulinic acid); type: biochemical; conditions: pH 6.5, 20° C., read-out: concentration leading to a 50% reduction in GSAAT activity
T2 construct: The mature Hordeum vulgare GSAAT was produced recombinantly in Escherichia coli; made in house; host or cells: Escherichia coli TG1, expression plasmid pATE19 co-transformed with pGroESL
T2 sequence (P18492 35-469): T1 sequence (P18492 35-469)
Protocol: GSAAT activity was detected by a photometric detection of the derivatized reaction product 5-aminolevulinic acid. The activity test was carried out in a 96-well flat-bottom microtiter plate (F form) made of polystyrene.
It was possible to carry out the desired number of individual measurements in parallel in the wells of the microtiter plate. The following information relates in each case to one well of the microtiter plate (MTP).
At a temperature of 20° C., 100 μl of enzyme solution (25 pkat/ml recombinant Hordeum vulgare GSAAT, 250 mM Bis Tris/HCl pH 6.5) and 10 μl of 25% (v/v) dimethyl sulfoxide in water were introduced into the well. […]
Immediately after the enzymatic reaction had started, the mixture was incubated for 30 minutes at 20° C. […] After the incubation had ended, the absorption of the solution was determined immediately at a wavelength of 540 nm with the aid of a microtiter plate photometer.
To determine the enzymatically formed quantity of 5-aminolevulinic acid, the blank value (see below) was first deducted from the absorption of the mixture to be analyzed. The difference between measured value and blank value was used for calculating, with the aid of a calibration series, the concentration of 5-aminolevulinic acid in the reaction mixture at the time immediately prior to addition of the ethyl acetoacetate. […]

Lemna gibba = experiment: Lemna test; type: in vivo; conditions: 20 μM in culture solution
Protocol: The phytotoxic action of GSAAT inhibitors was also determined in vivo by treating Lemna cultures.
To this end, Lemna gibba was cultured in sterile culture solution (0.4 g/l KNO3, 0.8 g/l CaCl2*2H2O, 0.366 g/l MgSO4*7H2O, 0.2 g/l KH2PO4, 2 ml/l solution I (2.23 g/l MnSO44H2O, 83 mg/l Kl, 2.5 mg/l CoCl2*6H2O, 0.86 g/l ZnSO4*7H2O, 2.5 mg/l CuSO4*5H2O, 0.62 g/l H3BO3, 25 mg/l Na2MoO4*2H2O) and 2 ml/l solution II(14.92 g/l Na-EDTA, 10.92 g/l FeSO4*7H2O)). In each case 3 plants were placed under sterile conditions into the a 100 ml Erlenmeyer flask which was filled with 50 ml culture solution containing the GSAAT inhibitor in a concentration of 20 μM. The culture flasks were illuminated at 25° C. with two 36 W daylight fluorescence tubes at a distance of 70 cm (24-hour light photoperiod). Growth and phenotype of the Lemna plants were observed over 7 days and compared with the growth and the phenotype of Lemna plants which had been grown in culture solution without inhibitor under otherwise identical conditions. It was characteristic of the phytotoxic effect of a GSAAT inhibitor that the newly-formed tissues were chlorotic. When light intensities were high, it was also possible for the plant tissue to become necrotic. Compounds with a rapid action frequently led to complete destruction of the plants after only one day, while the more slowly acting compounds first led to growth depression.

[3] = 100 μM, after a further 10 days

Row | Structure (SMILES) | effect on GSAAT (GSAAT) | phenotype of regenerated plants of most transgenic lines [1] | wet weight of nontransgenic plants (untransformed maize line; 1 μM in medium) [g] | wet weight of nontransgenic plants (untransformed maize line; 5 μM in medium) [g] | wet weight of nontransgenic plants (untransformed maize line; 10 μM in medium) [g] | wet weight of nontransgenic plants (untransformed maize line; 100 μM in medium) [g] | biomass production (untransformed maize line; [3]) | phenotype of newly-formed tissue (untransformed maize line; [3]) | phenotype of regenerated plants of the nontransgenic line (untransformed maize line; 100 μM, compared with the untreated control) | biomass production (untransformed maize line; concentration under 5 μM, after a further 10 days) | IC50 [2] [µM] | plants that had died (Lemna gibba; after 72 hours) | phytotoxic effect on Lemna plants (Lemna gibba; within 48 hours)
1 | NC1C=CC=C(C(=O)O)C1 (stereo not shown) [3-amino-2,3-dihydrobenzoic acid] | inhibited | none of the regenerated plants in the presence of 100 μM 3-amino-2,3-dihydrobenzoic acid shows chloroses or reduced growth | 4.15 | 3.82 | 3.12 | 1.53 | markedly reduced | marked chlorosis | marked chlorosis and reduced biomass production | unaltered within the normal variations | – | – | –
2 | NNCCCS(=O)(=O)O [compound A, hydrazinopropylsulfonic acid] | – | – | – | – | – | – | – | – | – | – | 6 | over 60% | chloroses and growth depression

Source: patent US6603062B1, “Method for producing transgenic plants with modified 5-aminolevulinic acid biosynthesis, method for identifying 5-aminolevulinic acid synthesis effectors” (Aventis CropScience GmbH, priority 1997, dated 2003)
